The values below come from ChEMBL document CHEMBL5512610, “Drug discovery and optimization based on the co-crystal structure of natural product with target” (Eur J Med Chem, 2024).

The target of series [1] is T1, Cyclin-dependent kinase 9 (Homo sapiens, UniProt P50750). The series is described as follows: Inhibition of human recombinant CDK9 (773 to 928 residues) expressed in insect cells. On the set-up: species or system Insect cell.
The subject of another series is Plasmodium falciparum. The series is described as follows: Antiplasmodial activity against Plasmodium falciparum K1 assessed as reduction in parasite growth. The series is classed as functional, organism-based.
A short description of series [2]: Binding affinity to actin (unknown origin) assessed as dissociation constant. More on the design: species or system Homo sapiens.
Another series concerns A549. The experiment in a line: Growth inhibition of human A549 cells incubated for 72 hrs by MTT assay. It is filed as functional. For orientation: Tetrazolium dyes change colour on reduction, which living cells bring about.
A further series concerns HepG2. The series is described as follows: Cytotoxicity against human HepG2 cells assessed as reduction in cell growth. It is filed as functional, cell-based.
Series [3] concerns MRC5. The experiment in a line: Cytotoxicity against human MRC5 cells assessed as reduction in cell viability. The series is classed as functional, cell-based.
Series [4] can be described thus: Oral bioavailability in mouse. The series is classed as ADME, organism-based. To be noted: in vivo.
Series [5] in a line: Cytotoxicity against HUVEC cells assessed as inhibition of cell growth incubated for 72 hrs by MTT assay. It is filed as toxicity, cell-based. The conditions noted are these: human.
Series [6] is described as follows: Cytotoxicity against human ARPE-19 cells assessed as cell growth inhibition incubated for 72 hrs by MTT assay. The series is classed as toxicity, cell-based.
The next series concerns NCI-N87. The series is described as follows: Antitumor activity against human NCI-N87 cells assessed as reduction in cell growth. It is filed as functional, cell-based.
Series [7] addresses T1, Cyclin-dependent kinase 9. The series is described as follows: Inhibition of CDK9 (unknown origin).
The target of series [8] is Cyclin-dependent kinase 2 (Homo sapiens, UniProt P24941). The experiment in a line: Inhibition of CDK2 (unknown origin).
The subject of series [9] is MRC5. The series is described as follows: Antiproliferative activity against human MRC5 cells assessed inhibition of cell growth incubated for 48 hrs by MTT assay. The series is classed as functional, cell-based. The conditions noted are these: MRC5, 48 h.
The subject of another series is Hepatitis C virus. The series is described as follows: Antiviral activity against Hepatitis C virus genotype 1b infected in human Huh-7 cells assessed as reduction in viral infection. It is filed as functional, organism-based, Hepacivirus hominis.

Where only a bound is given, the exact number is not on record here.

The term IC50 denotes the concentration that inhibits the measured activity by half. Usually Kd stands for the constant that tells how readily two partners part at equilibrium. The GI50 is the concentration giving 50% growth inhibition. Higher therefore signals lower sensitivity of the cells. As usually defined, the bioavailability is dose-corrected exposure relative to a reference, in per cent. As a reminder, the EC50 is the concentration at which the effect is half-maximal.

T1 sequence (P50750 whole entry, the tested form may be a part): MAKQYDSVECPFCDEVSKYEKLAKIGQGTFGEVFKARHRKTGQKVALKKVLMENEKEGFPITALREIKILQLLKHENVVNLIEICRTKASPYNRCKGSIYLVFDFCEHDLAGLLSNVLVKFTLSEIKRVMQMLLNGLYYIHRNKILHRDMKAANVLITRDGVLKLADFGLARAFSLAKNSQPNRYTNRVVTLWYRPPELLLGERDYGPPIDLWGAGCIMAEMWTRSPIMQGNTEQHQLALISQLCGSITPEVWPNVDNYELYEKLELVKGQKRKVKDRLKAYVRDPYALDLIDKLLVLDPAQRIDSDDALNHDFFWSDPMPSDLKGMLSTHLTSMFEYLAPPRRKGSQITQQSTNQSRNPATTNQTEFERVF

In the case of `Nc1nccc(-c2c3cccnc3n3c(N)nccc23)n1`, the IC50 in series [1] was 26 nM.
With `CC(=O)c1cccc(N[C@H]2[C@H](N)[C@](C)(NC(=O)N(C)C)[C@@](C)(O)[C@@]2(O)COC(=O)c2c(C)cccc2O)c1`, the IC50 with Plasmodium falciparum came to 77 nM.
For the compound `C=C[C@@H](C)CC[C@@H]1CCC[C@]2(CC[C@H](C)[C@@H](CCCNC(=O)[C@@H](C)[C@@H](O)CNC(=O)CCOC)O2)O1`, in series [2], the Kd was 43 nM. Besides, the GI50 in the series with A549 is 15100 nM.
With `CC[C@]1(NC(N)=O)[C@@H](N)[C@H](Nc2cccc(C(C)=O)c2)[C@](O)(COC(=O)c2c(C)cccc2O)[C@]1(C)O`, in the series on HepG2, the IC50 was greater than 9500 nM.
On to `COCCC(=O)NC[C@H](O)[C@H](C)C(=O)NCCC[C@H]1O[C@@]2(CCC[C@@H](CC[C@@H](C)/C=C(\C)[C@@H](C)O)O2)CC[C@@H]1C`, for which the Kd in series [2] stood at 9 nM.
`CC[C@]1(NC(=O)N(C)C)[C@@H](N)[C@H](Nc2cccc(C(C)=O)c2)[C@](O)(CO)[C@]1(C)O`: the IC50 with MRC5 [3] amounted to 5.6 nM.
Consider `C=CCC1CC[C@H](C)[C@H](CC(=O)NC[C@H](O)[C@H](C)C(=O)NCCC[C@H]2O[C@@]3(CCC[C@@H](CC[C@H](C)C=C)O3)CC[C@@H]2C)O1` (stereo partly drawn), for which the Kd in series [2] is 39 nM. Moreover, the concentration for 50% growth inhibition (GI50) in the series on A549 turned out to be 11200 nM.
`C=C[C@H](C)CCC[C@@H]1CCC[C@]2(CC[C@H](C)[C@@H](CCCNC(=O)[C@@H](C)[C@@H](O)CNC(=O)C[C@@H]3OC(CC(=O)/C=C/C)CC[C@@H]3C)O2)O1` (stereo partly drawn): in series [2], the Kd is 70 nM. The GI50 in the series with A549 amounted to 87.1 nM.
`CC(=O)N(C)[C@H](C(=O)N1C[C@H](C)C[C@H]1C(=O)N(C)[C@@H]1C(=O)N[C@@H](CC(C)C)C(=O)N2C[C@H](C)C[C@H]2C(=O)N[C@@H](CC(C)C)C(=O)N(C)[C@@H](C(C)C)C(=O)N2CC(C3CCCCC3)C[C@H]2C(=O)N(C)[C@H](CC(C)C)C(=O)NCC(=O)O[C@@H]1C)C(C)C` (stereo partly drawn) had a bioavailability in series [4] of 89%.
As for `CC[C@]1(NC(N)=O)[C@@H](N)[C@H](Nc2cccc(C(C)=O)c2)[C@](O)(CO)[C@]1(C)O`, the IC50 in the series on HepG2 was greater than 5600 nM.
`C=CCC[C@@H]1CCC[C@]2(CC[C@H](C)[C@@H](CCCNC(=O)[C@@H](C)[C@@H](O)CNC(=O)C[C@@H]3OC(CC(=O)/C=C/C)CC[C@@H]3C)O2)O1` (stereo partly drawn): in series [2], the Kd came out at 1500 nM. The compound further returned a concentration for 50% growth inhibition (GI50) with A549 of 323 nM.
`CC(=O)c1cccc(N[C@H]2[C@H](N)[C@](C)(NC(=O)N(C)C)[C@@](C)(O)[C@@]2(O)CO)c1`: in the series on Plasmodium falciparum, the IC50 came to 62 nM.
In turn, `CC(=O)N(C)[C@H](C(=O)N1C[C@H](C)C[C@H]1C(=O)N(C)[C@@H]1C(=O)N[C@@H](CC(C)C)C(=O)N2C[C@H](C)C[C@H]2C(=O)N[C@@H](CC(C)C)C(=O)N(C)[C@@H](C(C)C)C(=O)N2CC(C)C[C@H]2C(=O)N(C)[C@H](CC(C)C)C(=O)NCC(=O)O[C@@H]1C)C(C)C` (stereo partly drawn) showed a bioavailability in series [4] of 47%.
With `C/C=C/C(=O)C[C@H]1CC[C@H](C)[C@H](CC(=O)NC[C@H](O)[C@H](C)C(=O)NCCC[C@H]2O[C@@]3(CCC[C@@H](CC[C@@H](C)/C=C(\C)[C@@H](C)O)O3)CC[C@@H]2C)O1`, the Kd in series [2] is 7 nM. In the series on A549, this compound registered a GI50 of 20.4 nM.
For `C=CCNC1=C2C[C@@H](C)C[C@H](OC)[C@H](O)[C@@H](C)/C=C(\C)[C@H](OC(N)=O)[C@@H](OC)/C=C\C=C(/C)C(=O)NC(=C(C)C1=O)C2=O` (stereo in doubt), the IC50 at 72 h in [5] and in [6] was greater than 20 µM in each case.
`CO[C@H]1/C=C\C=C(/C)C(=O)NC2=C(C)C(=O)C(NCCN(C)C)=C(C[C@@H](C)C[C@H](OC)[C@H](O)[C@@H](C)/C=C(\C)[C@@H]1OC(N)=O)C2=O` (stereo in doubt): the IC50 at 72 h in series [5] and in series [6] was greater than 20 µM each time.
Take `C=CCNC1=C2C[C@@H](C)C[C@H](OC)[C@H](O)[C@@H](C)/C=C(\C)[C@H](OC(N)=O)[C@@H](OC)/C=C\C=C(/C)C(=O)NC(=C(c3ccccc3)C1=O)C2=O` (stereo in doubt): the IC50 at 72 h in [5] and in series [6] was greater than 20 µM in each case.
As for `CO[C@H]1/C=C\C=C(/C)C(=O)NC2=CC(=O)C(NCCN(C)C)=C(C[C@@H](C)C[C@H](OC)[C@H](O)[C@@H](C)/C=C(\C)[C@@H]1OC(N)=O)C2=O` (stereo in doubt) [ALVESPIMYCIN], in the series on NCI-N87, the EC50 is 62 nM.
As for `Nc1nccc(-c2c[nH]c3ncccc23)n1` [MERIOLIN 1], the concentration for half-maximal inhibition (IC50) in [7] came out at 10 µM.
`Nc1nccc(-c2c[nH]c3nccc(O)c23)n1` [MERIOLIN 2]: the results for the IC50 in series [8] and in series [7] were 3.1 µM and 2.6 µM, respectively.
In the case of `CC(=O)c1cccc(N[C@H]2[C@H](N)[C@@](NC(=O)N(C)C)([C@H](C)O)[C@@](C)(O)[C@@]2(O)COC(=O)c2c(C)cccc2O)c1` [PACTAMYCIN], the IC50 in the series with MRC5 [9] came to 95 nM; in the series with Plasmodium falciparum it was 187 nM; in the series on HepG2, 86 nM.
With `CC[C@H]1C[C@H](C)[C@@]2(NC1=O)O[C@@H](C[C@H](O)[C@@H](C)CC/C=C/C=C(\C)[C@@H]1C/C=C/C=C/[C@H](O)[C@H](C)[C@@H](O)[C@@H](CCC(C)=O)C(=O)N[C@@H](C(C)C)C(=O)N[C@@H](Cc3cccc(O)c3)C(=O)N3CCC[C@H](N3)C(=O)O1)[C@H](C)[C@H](O)[C@@H]2C` [SANGLIFEHRIN A], the EC50 with Hepatitis C virus amounted to 87 nM.
